Assay results as given in patent US12053533B2, “Fluorescent probe for cyclooxygenase-2” (The Board of Trustees of the University of Illinois, priority 2020, dated 2024).

Tests used:
COX-2 [1] = target: T1, COX-2 (Homo sapiens, UniProt P35354); settings: comparison values for other COX-2 substrates; cited from earlier work
T1 sequence (P35354 18-604): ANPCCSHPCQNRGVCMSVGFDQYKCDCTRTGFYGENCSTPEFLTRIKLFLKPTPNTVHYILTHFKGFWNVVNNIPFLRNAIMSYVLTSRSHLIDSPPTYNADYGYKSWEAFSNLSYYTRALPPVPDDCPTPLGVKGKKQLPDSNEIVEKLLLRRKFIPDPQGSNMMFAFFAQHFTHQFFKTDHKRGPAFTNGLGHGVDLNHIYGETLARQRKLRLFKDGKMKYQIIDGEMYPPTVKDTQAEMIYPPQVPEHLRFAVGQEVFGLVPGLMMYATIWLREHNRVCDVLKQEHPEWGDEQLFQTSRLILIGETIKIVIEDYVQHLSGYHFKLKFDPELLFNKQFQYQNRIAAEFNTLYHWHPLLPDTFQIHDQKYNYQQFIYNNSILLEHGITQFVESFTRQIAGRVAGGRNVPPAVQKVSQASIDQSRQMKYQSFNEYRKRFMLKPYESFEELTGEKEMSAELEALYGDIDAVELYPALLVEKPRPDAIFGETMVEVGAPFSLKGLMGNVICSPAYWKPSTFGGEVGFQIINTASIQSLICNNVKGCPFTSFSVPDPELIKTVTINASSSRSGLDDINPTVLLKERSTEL

[2] = ethanol; cited from earlier work
COX-2 [3] = target: T1, COX-2; experiment: COX-2 fluorescence assay with CoxFluor (fluorimeter / plate reader); assay type: biochemical; parameters: made in house; settings: COX-2 250 nM, 4 h
Protocol: Fluorimeter Fluorescence Assay. The fluorescence assays were performed in microquartz cuvettes or submicroquartz cuvettes with a maximum volume of 600 μL. Reactions were monitored at room temperature using 540 nm excitation and emission was collected from 550-700 nm with a slit width of 1.25 mm. Total volumes of the reaction mixtures were maintained at 570 μL. […] Experiments in the presence of reduced GSH were conducted according to the same procedure, but GSH (30 μL, 19 mM in 100 mM Tris-HCl, pH 8.0) was added before the addition of CoxFluor for a final concentration of 1 mM. Assays performed in submicroquartz cuvettes were performed maintaining the same ratios, but with a final volume of 142.5 μL.
Plate Reader Fluorescence Assay. The fluorescence assays were performed at room temperature using 540 nm excitation and 590 nm emission. Total volume of the reaction mixture was maintained at 190 μL. […] Inhibition assays were performed according to the same procedure, but COX-2 was preincubated with hemin and inhibitor for 0.5 h at 0° C. before initiation with CoxFluor. Relative fluorescence enhancement is calculated by comparing to a buffer control with 10 μM CoxFluor.

[4] = test system: COX-2 activity in HEK 293T cells over-expressing human COX-2; experiment: Confocal live-cell imaging of human COX-2 transfected HEK 293T cells; assay type: cell-based; settings: indomethacin 10 μM, CoxFluor 10 μM, 3 h
Protocol: Prior to plating onto 4-well chambered cover glasses, the surface exposed substrate was coated with R&D Systems™ Cultrex Poly-L-Lysine (Fisher Scientific) according to the manufacturers protocol (allowed to dry>3 h). […] Transfections was performed using Lipofectamine 3000 (Thermo Fisher Scientific) according to the manufacturer's protocol. […] Media was removed from each well and replaced with 500 μL Opti-MEM™ Reduced Serum Media followed by the addition of 20 μL transfection master mix.
Transfections were performed using the Lipofectamine 3000 reagent according to the aforementioned protocol. Control wells were treated the same as the transfected wells without the addition of the transfection master mix. […] Each well was imaged using a Zeiss LSM 700 confocal microscope (n=3 technical replicates; n=4 biological replicates). For GSH knockdown experiments, the initial media change was performed with 1 mM NEM (0.1% DMSO final concentration) in serum-free DMEM media and the cells were allowed to incubate for 30 minutes before proceeding to the staining with CoxFluor. […] All images were processed using identical parameters and false colored (LUT: jet.lut) in ImageJ.

[5] = Photophysical characterization; assay type: physicochemical
Protocol: Photophysical Characterization. Extinction coefficients and fluorescence quantum yields were acquired (n=3) and reported as the average with a relative standard deviation less than 15%. Extinction coefficients were acquired by titrating compound in 100 mM Tris-HCl (pH 8.0) within the linear range. Fluorescence quantum yields were obtained using the modified method for relative fluorescence quantum yield. Dye was titrated into the solution and the absorbance and emission were monitored (excitation at 540 nm). The absorbance was maintained below 0.1 to limit secondary absorbance events. Total emission spectra were integrated, and the relative quantum yield was calculated relative to Rhodamine B (ϕ=0.70, ethanol). The refractive index of 100 mM Tris-HCl (pH 8.0) was measured to be 1.33514.

[6] = CoxFluor, Ctrl-CoxFluor & Resorufin stability assays; assay type: physicochemical; settings: 8 hours at room temperature or 37° C., with or without ambient light
Protocol: CoxFluor, Ctrl-CoxFluor & Resorufin Stability Assays. Stability assays were performed for a 10 μM solution of each compound in a series of buffers/solvents (100 mM Tris-HCl at pH 8.0, DMEM with 10% FBS, DMEM without serum and DMSO). Stability was assessed at room temperature or at 37° C. and in the presence or absence of ambient light. Fluorescence was measured using the plate reader with excitation at 540 nm and emission from 560-700 nm and the relative turn-on was determined by the change of fluorescence intensity at 590 nm.

[7] = substrate: CCCCC/C=C\C/C=C\C/C=C\C/C=C\CCCC(=O)N1c2ccc(O)cc2Oc2cc(O)ccc21; experiment: COX-2 fluorescence assay with CoxFluor (fluorimeter / plate reader); assay type: biochemical, human; settings: other: steady state; COX-2 50 nM, hemin 200 nM; pH 8.0

CCCCC/C=C\C/C=C\C/C=C\C/C=C\CCCC(=O)NCCO [arachidonyl ethanolamide]
Km (COX-2 [1]): 24 µM

CCN(CC)c1ccc2c(-c3ccccc3C(=O)O)c3ccc(=[N+](CC)CC)cc-3oc2c1.[Cl-] [Rhodamine B]
quantum yield ϕ of reference standard [2]: 0.70

CCCCCCCCCCCCCCCCCCCC(=O)N1c2ccc(O)cc2Oc2cc(O)ccc21 [Ctrl-CoxFluor]
reactivity with COX-2 under the same reaction conditions (COX-2 [3]; hemin 1 μM): unreactive

COc1ccc2c(c1)c(CC(=O)O)c(C)n2C(=O)c1ccc(Cl)cc1 [indomethacin, reference compound]
fluorescence enhancement of transfected cells upon treatment with inhibitor [4]: no fluorescence enhancement was observed

CCN1C(=O)C=CC1=O [NEM, N-ethylmaleimide, reference compound]
effect on COX activity (COX-2 [3]; varying N-ethylmaleimide concentrations, CoxFluor 10 μM): does not affect COX activity

O=c1ccc2nc3ccc(O)cc3oc-2c1 [resorufin, reference compound]
extinction coefficient ε at 573 nm ([5]; 100 mM Tris-HCl pH 8.0): 73,000 M^−1cm^−1 | fluorescence quantum yield ΦF ([5]; 100 mM Tris-HCl pH 8.0, relative to Rhodamine B): 0.55 | stability in Tris-HCl and DMEM buffer systems [6]: stable

CCCCC/C=C\C/C=C\C/C=C\C/C=C\CCCC(=O)O [AA, arachidonic acid]
Km (COX-2 [1]): 6 µM

B1: recombinant human COX-2 (Homo sapiens) (protein)
chain: T1 sequence (P35354 18-604)
notes: made in house
Km [7]: 22 µM | kcat [7]: 19 min⁻¹
